The results in this text go back to patent publication US20090318527A1, “INDOLE COMPOUNDS AND METHODS OF USE THEREOF” (priority 2008, published 2009).

Counter-ions that a name gives are not always drawn.

In one data set the target is T1, human 5-HT2A receptor (Homo sapiens, UniProt P28223).
T1 construct: expressed in transfected cells; host or cells: HEK 293
Kind of data set: Intracellular calcium flux assay, HEK 293 cells stably expressing 5-HT2A.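 On all read-outs here: fluorescent calcium dye read on FLIPR Tetra, peak signal above baseline within 60 s after compound addition, seven concentrations spanning 10 pM to 10 µM.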 It is filed as cell-based. Conditions: for 5-HT2A efficacy as percentage of the maximal 5-HT response ± SD / EC50: calcium flux, at least three independent experiments; for 5-HT2A response as percentage of the maximal 5-HT response @ 10,000: EC50 not reached; for EC50: each in triplicate, read-out: 5-HT2A mean EC50 ± SD; for Emax at 10 µM: HEK293, read-out: 5-HT2A functional activity (N/A class). On the technique in general: Calcium flux is commonly read through the fluorescence of an indicator in the cells.

Another data set concerns the target T2, human 5-HT2B receptor (Homo sapiens, UniProt P41595).
T2 construct: expressed in transfected cells; host or cells: HEK 293
Kind of data set: Intracellular calcium flux assay, HEK 293 cells stably expressing 5-HT2B.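 On all read-outs here: calcium dye fluorescence read on a FLIPR Tetra, peak signal above baseline within 60 s after compound addition, seven-point concentration series from 10 pM up to 10 µM.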 The format is cell-based. Conditions: for Emax at 10 µM: HEK293, read-out: 5-HT2B functional activity (N/A class); for EC50 / Emax: calcium flux, at least three independent experiments; for EC50: each in triplicate, read-out: 5-HT2B mean EC50 ± SD; for Emax: HEK293, read-out: 5-HT2B efficacy as percentage of the maximal 5-HT response ± SD.

For another data set, the target named is T3, 5-HT2C (Homo sapiens, UniProt P28335).
T3 sequence (P28335 33-458): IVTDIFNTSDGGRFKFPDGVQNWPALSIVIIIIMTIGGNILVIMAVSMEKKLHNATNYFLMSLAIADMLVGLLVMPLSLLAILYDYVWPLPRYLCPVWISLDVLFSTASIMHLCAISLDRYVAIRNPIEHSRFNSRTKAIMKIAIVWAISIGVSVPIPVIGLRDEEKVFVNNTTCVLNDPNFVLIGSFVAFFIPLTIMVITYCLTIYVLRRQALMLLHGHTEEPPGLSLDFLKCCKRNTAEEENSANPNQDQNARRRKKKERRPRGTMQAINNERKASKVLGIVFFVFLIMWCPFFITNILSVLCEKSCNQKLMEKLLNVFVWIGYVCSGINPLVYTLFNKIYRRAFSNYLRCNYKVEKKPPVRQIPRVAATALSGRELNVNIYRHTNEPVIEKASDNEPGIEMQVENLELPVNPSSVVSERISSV
The data set is described as follows: Intracellular calcium flux assay, HEK 293 cells stably expressing 5-HT2C.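 On all read-outs here: calcium dye fluorescence read on FLIPR Tetra as peak signal above baseline within 60 s of compound addition, seven concentrations from 10 pM to 10 µM, each in triplicate.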 It is filed as cell-based. Further details: expressed in transfected cells; host or cells: HEK 293. Conditions: for Emax: HEK293, read-out: 5-HT2C efficacy as percentage of the maximal 5-HT response ± SD, at least three independent experiments, entries marked a (42, 50, 51, 52) single measurements; for EC50: read-out: 5-HT2C mean EC50 ± SD.

Where [1] appears, read: at least three independent experiments, entries marked a (42, 50, 51, 52) single measurements.

T1 sequence (P28223 whole entry): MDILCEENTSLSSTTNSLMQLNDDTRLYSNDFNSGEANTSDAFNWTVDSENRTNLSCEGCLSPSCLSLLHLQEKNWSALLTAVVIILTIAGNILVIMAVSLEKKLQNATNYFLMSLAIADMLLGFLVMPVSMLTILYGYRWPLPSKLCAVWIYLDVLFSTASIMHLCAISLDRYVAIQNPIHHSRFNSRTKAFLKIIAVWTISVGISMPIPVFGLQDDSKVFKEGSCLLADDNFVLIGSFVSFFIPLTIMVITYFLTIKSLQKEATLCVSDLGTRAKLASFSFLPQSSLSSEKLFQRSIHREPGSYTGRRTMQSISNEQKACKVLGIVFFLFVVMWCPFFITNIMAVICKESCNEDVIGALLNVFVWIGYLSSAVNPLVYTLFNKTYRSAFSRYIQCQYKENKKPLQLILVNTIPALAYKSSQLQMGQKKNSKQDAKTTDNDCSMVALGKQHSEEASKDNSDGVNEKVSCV
T2 sequence (P41595 whole entry): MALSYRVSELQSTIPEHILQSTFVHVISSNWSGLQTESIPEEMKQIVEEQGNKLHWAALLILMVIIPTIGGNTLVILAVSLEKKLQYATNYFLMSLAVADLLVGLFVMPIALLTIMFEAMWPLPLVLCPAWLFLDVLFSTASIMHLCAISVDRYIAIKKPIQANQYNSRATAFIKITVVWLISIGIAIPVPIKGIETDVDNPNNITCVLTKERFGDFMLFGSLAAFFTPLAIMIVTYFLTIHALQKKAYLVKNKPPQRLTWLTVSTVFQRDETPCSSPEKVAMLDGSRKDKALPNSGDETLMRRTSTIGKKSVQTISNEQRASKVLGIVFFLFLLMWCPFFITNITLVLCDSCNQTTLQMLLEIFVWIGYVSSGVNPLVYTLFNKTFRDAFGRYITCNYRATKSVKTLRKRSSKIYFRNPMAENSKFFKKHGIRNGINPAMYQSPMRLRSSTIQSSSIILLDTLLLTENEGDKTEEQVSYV

The melting point is the temperature of the solid-liquid transition. Molecule `CCCOc1c(F)ccc2c1c(CCN(C)C)cn2CCC.Cl` registered a melting point of 142 to 145 °C.

Consider `NCCc1c[nH]c2ccc(O)cc12` [Compound 5-HT, 5-hydroxytryptamine, reference compound], for which the “5-HT2A efficacy as percentage of the maximal 5-HT response ± SD” value at human 5-HT2A receptor is reported as “(100%)”.

As usually defined, the EC50 is the midpoint of the concentration-response curve. With `CCn1cc(CCN(C)C)c2c(OC)ccc(F)c21` [Compound 23, 2-(1-Ethyl-7-fluoro-4-methoxy-1H-indol-3-yl)-N,N-dimethylethanamine], on human 5-HT2B receptor (at 10,000 nM), the Emax at 10 µM was under 10%. For the same molecule, on human 5-HT2A receptor (at 10,000 nM), the “5-HT2A response as percentage of the maximal 5-HT response @ 10,000” value is given as “(17 ± 3.7 @ 10,000) %”. The EC50 on human 5-HT2A receptor was over 10 µM; at 5-HT2C (setting [1]), 0.013 ± 0.00174 µM. The Emax at 5-HT2C was 71%.

The molecule `CCOc1ccc(F)c2c1c(CCN(C)C)cn2CC` [Compound 24, 2-(4-Ethoxy-1-ethyl-7-fluoro-1H-indol-3-yl)-N,N-dimethylethanamine] displayed a melting point of 59 to 60 °C. Besides, the “5-HT2B response as percentage of the maximal 5-HT response @ 10,000” value on human 5-HT2B receptor (at 10,000 nM, EC50 not reached) was “(14 ± 4.8 @ 10,000) %”. Moreover, the concentration for a half-maximal effect (EC50) at human 5-HT2B receptor is over 5 µM. For the same molecule, at human 5-HT2A receptor (at 10,000 nM), the “5-HT2A response as percentage of the maximal 5-HT response @ 10,000” value is “(21 ± 5.5 @ 10,000) %”. The concentration giving a half-maximal response (EC50) at human 5-HT2A receptor was over 2 µM. In addition, on 5-HT2C, the Emax was found to be 77%. Besides, on 5-HT2C (setting [1]), the EC50 was 0.057 ± 0.0171 µM.

As to `CCOc1ccc(F)c2c1c(CCN(C)C)cn2C` [Compound 26, 2-(4-Ethoxy-7-fluoro-1-methyl-1H-indol-3-yl)-N,N-dimethylethanamine], the Emax was 28% at human 5-HT2B receptor and 82% at 5-HT2C. The EC50 on human 5-HT2B receptor came out at 0.217 ± 0.0959 µM; on human 5-HT2A receptor it was 1.49 µM; on 5-HT2C (setting [1]) it was 0.043 ± 0.0188 µM. In addition, at human 5-HT2A receptor, the “5-HT2A efficacy as percentage of the maximal 5-HT response ± SD” value is on record as “(25 ± 4.1%)”.

Consider `CCCOc1ccc(F)c2c1c(CCN(C)C)cn2C` [Compound 27, 2-(7-Fluoro-1-methyl-4-propoxy-1H-indol-3-yl)-N,N-dimethylethanamine], for which the Emax at human 5-HT2B receptor was 54%; on 5-HT2C, 75%. Also, the EC50 on human 5-HT2B receptor worked out at 0.334 ± 0.0887 µM; on 5-HT2C (setting [1]), 0.096 ± 0.0198 µM. In addition, the Emax at 10 µM on human 5-HT2A receptor (at 10,000 nM) is under 10%.

Take `CCCn1cc(CCN(C)C)c2c(OC)ccc(F)c21` [Compound 28, 2-(7-Fluoro-4-methoxy-1-propyl-1H-indol-3-yl)-N,N-dimethylethanamine]: the Emax at 10 µM at human 5-HT2B receptor (at 10,000 nM) and at human 5-HT2A receptor (at 10,000 nM) was under 10% each time. For the same molecule, the Emax at 5-HT2C turned out to be 45%. Besides, the EC50 at 5-HT2C (setting [1]) is 0.076 ± 0.0391 µM.

Turning to `CCCn1cc(CCN(C)C)c2c(OCC)ccc(F)c21` [Compound 29, 2-(4-Ethoxy-7-fluoro-1-propyl-1H-indol-3-yl)-N,N-dimethylethanamine], the Emax at 10 µM at human 5-HT2B receptor (at 10,000 nM) and on human 5-HT2A receptor (at 10,000 nM) was under 10% throughout. Moreover, the Emax at 5-HT2C is 43%. The EC50 at 5-HT2C (setting [1]) is 0.346 ± 0.097 µM.

As to `CCCOc1ccc(F)c2c1c(CCN(C)C)cn2CCC` [Compound 30, 2-(7-Fluoro-4-propoxy-1-propyl-1H-indol-3-yl)-N,N-dimethylethanamine], the Emax at 10 µM at human 5-HT2B receptor (at 10,000 nM) and at human 5-HT2A receptor (at 10,000 nM) was under 10% each time. In addition, the Emax on 5-HT2C amounted to 37%. In addition, the EC50 on 5-HT2C (setting [1]) is 0.858 ± 0.289 µM.

Consider `CCOc1c(F)ccc2c1c(CCN(C)C)cn2C` [Compound 59, 2-(4-Ethoxy-5-fluoro-1-methyl-1H-indol-3-yl)-N,N-dimethylethanamine hydrochloride], for which the Emax at 10 µM at human 5-HT2B receptor (at 10,000 nM) and at human 5-HT2A receptor (at 10,000 nM) was under 10% each time. In addition, the Emax on 5-HT2C was determined as 51%. For the same molecule, the EC50 at 5-HT2C (setting [1]) is 0.00082 ± 0.00023 µM.

Consider `CCn1cc(CCN(C)C)c2cc(F)c(O)cc21` [Compound 83, 3-[2-(Dimethylamino-ethyl)]-1-ethyl-5-fluoro-1H-indol-6-ol], for which, on human 5-HT2B receptor (at 10,000 nM), the “5-HT2B functional activity (N/A class)” value is “N/A (N/A: <10% max HT @ 10,000 nM)”. Further, on human 5-HT2A receptor (at 10,000 nM), the “5-HT2A functional activity (N/A class)” value was “N/A (N/A: <10% max HT @ 10,000 nM)”. Besides, at 5-HT2C (setting [1]), the “5-HT2C efficacy as percentage of the maximal 5-HT response ± SD” value is recorded as “(73 ± 4%)” and the concentration giving a half-maximal response (EC50) is 0.221 ± 0.027 µM.
